Data on five compounds can be found in patent USRE30451E, “Novel process for producing antibiotics bleomycin” (priority 1969, dated 1980).

Data set [1] concerns Ehrlich ascites carcinoma cells. The settings on record: for ED50: maximum dose level at which mice survive 100 to 200 percent of control survival days, intraperitoneally once a day for 10 days, doses 25 mg/kg to 0.19 mg/kg; for anti-tumor effect (in words): mouse, in vivo.
Data set [2] has the same test system. The data set is described as follows: Life-prolongation effect and toxicity in mice inoculated with ascites type Ehrlich carcinoma. The settings on record: mouse, in vivo.
For data set [3] the following is noted: tumour-inoculated ICR/JCL mice, intraperitoneally once a day for 10 days, doses 25 mg/kg to 0.19 mg/kg, Behres-Karber's method, observed up to 50 days.

Regarding `Cc1c(N)nc(C(CC(N)=O)NCC(N)C(N)=O)nc1C(=O)NC(C(=O)NC(C)C(O)C(C)C(=O)NC(C(=O)NCCc1nc(-c2nc(C(=O)NCCCNC(C)c3ccccc3)cs2)cs1)C(C)O)C(OC1OC(CO)C(O)C(O)C1OC1OC(CO)C(O)C(OC(N)=O)C1O)c1cnc[nH]1` (stereo not shown) [Compound 35, 3-(1-phenylethyl)-aminopropyl-amino-bleomycin], in data set [1], the ED50 is recorded as 0.19 and the “anti-tumor effect (in words)” value is “excellent in effect”. Also, in data set [2], the “toxicity (in words)” value is on record as “less toxicity”.

The compound `Cc1c(N)nc([C@H](CC(N)=O)NC[C@H](N)C(N)=O)nc1C(=O)N[C@H](C(=O)N[C@H](C)[C@@H](O)[C@H](C)C(=O)N[C@H](C(=O)NCCc1nc(-c2nc(C(=O)NCCCNCCCCN)cs2)cs1)[C@@H](C)O)[C@@H](O[C@@H]1O[C@@H](CO)[C@@H](O)[C@H](O)[C@@H]1O[C@@H]1O[C@H](CO)[C@@H](O)[C@H](OC(N)=O)[C@@H]1O)c1cnc[nH]1` [Compound 7, Bleomycin A5, reference compound] registered an LD50 in data set [3] of 15.6. In data set [1], the ED50 was 0.19 and the “anti-tumor effect (in words)” value is “strong in anti-tumor property”. For the same compound, in data set [2], the “toxicity (in words)” value is reported as “less in toxicity”.

As for `Cc1c(N)nc(C(CC(N)=O)NCC(N)C(N)=O)nc1C(=O)NC(C(=O)NC(C)C(O)C(C)C(=O)NC(C(=O)NCCc1nc(-c2nc(C(=O)NCCCNCCCN(C)C)cs2)cs1)C(C)O)C(OC1OC(CO)C(O)C(O)C1OC1OC(CO)C(O)C(OC(N)=O)C1O)c1cnc[nH]1` (stereo not shown) [Compound 21], the LD50 in data set [3] is listed as 10.3. This compound registered an ED50 in data set [1] of 0.19.

In turn, `COCCCNCCCNC(=O)c1csc(-c2csc(CCNC(=O)C(NC(=O)C(C)C(O)C(C)NC(=O)C(NC(=O)c3nc(C(CC(N)=O)NCC(N)C(N)=O)nc(N)c3C)C(OC3OC(CO)C(O)C(O)C3OC3OC(CO)C(O)C(OC(N)=O)C3O)c3cnc[nH]3)C(C)O)n2)n1` (stereo not shown) [Compound 33, 3-(3-methoxypropyl)-aminopropylaminobleomycin] yielded an LD50 in data set [3] of 7.5. The ED50 in data set [1] was 0.19.

In turn, `Cc1c(N)nc([C@H](CC(N)=O)NC[C@H](N)C(N)=O)nc1C(=O)N[C@H](C(=O)N[C@H](C)[C@@H](O)[C@H](C)C(=O)N[C@H](C(=O)NCCc1nc(-c2nc(C(=O)NCCCCN=C(N)N)cs2)cs1)[C@@H](C)O)[C@@H](O[C@@H]1O[C@@H](CO)[C@@H](O)[C@H](O)[C@@H]1O[C@H]1O[C@H](CO)[C@@H](O)[C@H](OC(N)=O)[C@@H]1O)c1cnc[nH]1` [Compound 3, Bleomycin B2, reference compound] came in with an LD50 in data set [3] of 7.5. This compound registered an ED50 in data set [1] of 0.78.
